# Assay results taken from patent US20190100549A1, “FLAVONOIDE-TYPE COMPOUNDS BEARING AN O-RHAMNOSYL RESIDUE” (Universitaet Hamburg, priority 2016, published 2019).
# “And” between values parts separate entries of the source, which are not always exact repeats. Equal entries are not always repeated.
# Columns and labels:
# Type in all cases: cell-based
# [1] = system: normal human epidermal keratinocytes (NHEK); experiment: Cytotoxicity on NHEK monolayer cultures (MTT reduction assay and morphological observation); settings: for Viability (%): single values
# Experimental: To determine the cytotoxicity of flavonoid-5-O-α-L-rhamnosides tests were performed versus their aglycon derivatives in cell monolayer cultures. For this purpose concentrations ranging from 1 μM to 250 μM were chosen. The viability of normal human epidermal keratinocytes (NHEK) was twice evaluated by a MTT reduction assay and morphological observation with a microscope. NHEK were grown at 37° C. and 5% CO2 aeration in Keratinocyte-SFM medium supplemented with epidermal growth factor (EGF) at 0.25 ng/mL, pituitary extract (PE) at 25 μg/mL and gentamycin (25 μg/mL) for 24 h and were used at the 3rd passage. For cytotoxicity testing, pre-incubated NHEK were given fresh culture medium containing a specific concentration of test compound and incubated for 24 h. After a medium change at same test concentration cells were incubated a further 24 h until viability was determined. Test results are given in Table B2 and illustrated in FIG. 10.
# [2] = system: STAT3; experiment: STAT3 activity in HeLa-STAT3-luc cells stimulated with IFN-γ (luciferase); settings: for % Activation: IFNγ alone = 100
# Experimental: HeLa-STAT3-luc cells were stably transfected with the plasmid 4xM67 pTATA TK-Luc. Cells (20×10^3 cells/ml) were seeded 96-well plate the day before the assay. Then the cells were treated with the test substances for 15 min and then stimulated with IFN-γ 25 IU/ml. After 6 h, the cells were washed twice with PBS and lysed in 50 μl lysis buffer containing 25 mM Tris-phosphate (pH 7.8), 8 mM MgCl2, 1 mM DTT, 1% Triton X-100, and 7% glycerol during 15 min at RT in a horizontal shaker. Luciferase activity was measured using GloMax 96 microplate luminometer (Promega) following the instructions of the luciferase assay kit (Promega, Madison, Wis., USA). […] The experiments for each concentration of the test items were done in triplicate wells.
# [3] = system: NF-κB; experiment: NF-κB activity in NIH3T3-KBF-Luc cells stimulated with TNFα (luciferase); settings: for % Activation: TNFα alone = 100
# Experimental: NIH3T3-KBF-Luc cells were stably transfected with the KBF-Luc plasmid (Sancho (2003) Mol Pharmacol 63:429-438), which contains three copies of NF-κB binding site (from major histocompatibility complex promoter), fused to a minimal simian virus 40 promoter driving the luciferase gene. Cells (1×10^4 for NIH3T3-KBF-Luc) were seeded the day before the assay on 96-well plate. Then the cells were treated with the test substances for 15 min and then stimulated with 30 ng/ml of TNFα. After 6 h, the cells were washed twice with PBS and lysed in 50 μl lysis buffer containing 25 mM Tris-phosphate (pH 7.8), 8 mM MgCl2, 1 mM DTT, 1% Triton X-100, and 7% glycerol during 15 min at RT in a horizontal shaker. Luciferase activity was measured using a GloMax 96 microplate luminometer (Promega) following the instructions of the luciferase assay kit (Promega, Madison, Wis., USA). […] The experiments for each concentration of the test items were done in triplicate wells.
molecule,measurement,setting,value
"COc1ccc(C2CC(=O)c3c(O)cc(O)cc3O2)cc1O (centres unmarked) [Hesperetin, 3′,5,7-Trihydroxy-4′-methoxyflavanone]",Viability (%) Mean,[1]; 1 μM,105%
same,Viability (%),[1]; 1 μM,103% and 106%
same,Viability (%) Mean,[1]; 2.5 μM,103%
same,Viability (%),[1]; 2.5 μM,98% and 109%
same,Viability (%) Mean,[1]; 5 μM,106%
same,Viability (%),[1]; 5 μM,107% and 106%
same,Viability (%) Mean,[1]; 10 μM,103%
same,Viability (%),[1]; 10 μM,101% and 105%
same,Viability (%) Mean,[1]; 25 μM,108%
same,Viability (%),[1]; 25 μM,106% and 109%
same,Viability (%) Mean,[1]; 50 μM,106%
same,Viability (%),[1]; 50 μM,106%
same,Viability (%) Mean,[1]; 100 μM,99%
same,Viability (%),[1]; 100 μM,98% and 100%
same,Viability (%) Mean,[1]; 250 μM,57%
same,Viability (%) Mean,"[1]; 250 μM, listed as hesperetin",about 50%
same,Viability (%),[1]; 250 μM,54% and 59%
"COc1ccc(-c2coc3cc(O[C@@H]4OC(C)[C@H](O)C(O)C4O)cc(O[C@@H]4OC(C)[C@H](O)C(O)C4O)c3c2=O)cc1 (stereo partly drawn) [BR1, Biochanin A-5,7-di-O-α-L-rhamnoside]",RLU 1,[2]; 25 μM + IFNγ 25 U/ml,8162 RLU
same,RLU 2,[2]; 25 μM + IFNγ 25 U/ml,12819 RLU
same,RLU 3,[2]; 25 μM + IFNγ 25 U/ml,11157 RLU
same,RLU MEAN,[2]; 25 μM + IFNγ 25 U/ml,10713 RLU
same,RLU specific,[2]; 25 μM + IFNγ 25 U/ml,8878 RLU
same,% Activation,[2]; 25 μM + IFNγ 25 U/ml,110.41%
same,RLU 1,[2]; 50 μM + IFNγ 25 U/ml,12336 RLU
same,RLU 2,[2]; 50 μM + IFNγ 25 U/ml,11620 RLU
same,RLU 3,[2]; 50 μM + IFNγ 25 U/ml,12104 RLU
same,RLU MEAN,[2]; 50 μM + IFNγ 25 U/ml,12020 RLU
same,RLU specific,[2]; 50 μM + IFNγ 25 U/ml,10185 RLU
same,% Activation,[2]; 50 μM + IFNγ 25 U/ml,126.67%
same,RLU 1,[3]; 10 μM + 30 ng/ml TNFα,259120 RLU
same,RLU 2,[3]; 10 μM + 30 ng/ml TNFα,247590 RLU
same,RLU 3,[3]; 10 μM + 30 ng/ml TNFα,229500 RLU
same,RLU MEAN,[3]; 10 μM + 30 ng/ml TNFα,245403 RLU
same,RLU specific,[3]; 10 μM + 30 ng/ml TNFα,222040 RLU
same,% Activation,[3]; 10 μM + 30 ng/ml TNFα,170.3%
same,RLU 1,[3]; 25 μM + 30 ng/ml TNFα,211660 RLU
same,RLU 2,[3]; 25 μM + 30 ng/ml TNFα,208010 RLU
same,RLU 3,[3]; 25 μM + 30 ng/ml TNFα,203720 RLU
same,RLU MEAN,[3]; 25 μM + 30 ng/ml TNFα,207797 RLU
same,RLU specific,[3]; 25 μM + 30 ng/ml TNFα,184433 RLU
same,% Activation,[3]; 25 μM + 30 ng/ml TNFα,141.4%
"O=C1CC(c2ccc(O)cc2)Oc2cc(O)cc(O)c21 (centres unmarked) [Naringenin, 4′,5,7-Trihydroxyflavanone]",Viability (%) Mean,[1]; 1 μM,95%
same,Viability (%),[1]; 1 μM,96% and 95%
same,Viability (%) Mean,[1]; 2.5 μM,93%
same,Viability (%),[1]; 2.5 μM,95% and 92%
same,Viability (%) Mean,[1]; 5 μM,92%
same,Viability (%),[1]; 5 μM,93% and 91%
same,Viability (%) Mean,[1]; 10 μM,95%
same,Viability (%),[1]; 10 μM,95%
same,Viability (%) Mean,[1]; 25 μM,92%
same,Viability (%),[1]; 25 μM,89% and 94%
same,Viability (%) Mean,[1]; 50 μM,89%
same,Viability (%),[1]; 50 μM,85% and 94%
same,Morph. obs.,[1]; 100 μM,"+/−, *"
same,Viability (%) Mean,[1]; 100 μM,75%
same,Viability (%),[1]; 100 μM,76% and 74%
same,Morph. obs.,[1]; 250 μM,"+/−, *"
same,Viability (%) Mean,[1]; 250 μM,47%
same,Viability (%) Mean,"[1]; 250 μM, listed as naringenin",about 50%
same,Viability (%),[1]; 250 μM,48% and 47%
Silibinin-5-O-α-L-rhamnoside [SR1],RLU 1,[2]; 25 μM + IFNγ 25 U/ml,9507 RLU
same,RLU 2,[2]; 25 μM + IFNγ 25 U/ml,11653 RLU
same,RLU 3,[2]; 25 μM + IFNγ 25 U/ml,10203 RLU
same,RLU MEAN,[2]; 25 μM + IFNγ 25 U/ml,10454 RLU
same,RLU specific,[2]; 25 μM + IFNγ 25 U/ml,8447 RLU
same,% Activation,[2]; 25 μM + IFNγ 25 U/ml,92.24%
same,RLU 1,[2]; 50 μM + IFNγ 25 U/ml,10090 RLU
same,RLU 2,[2]; 50 μM + IFNγ 25 U/ml,11355 RLU
same,RLU 3,[2]; 50 μM + IFNγ 25 U/ml,10938 RLU
same,RLU MEAN,[2]; 50 μM + IFNγ 25 U/ml,10794 RLU
same,RLU specific,[2]; 50 μM + IFNγ 25 U/ml,8787 RLU
same,% Activation,[2]; 50 μM + IFNγ 25 U/ml,95.95%
same,RLU 1,[3]; 10 μM + 30 ng/ml TNFα,269710 RLU
same,RLU 2,[3]; 10 μM + 30 ng/ml TNFα,262180 RLU
same,RLU 3,[3]; 10 μM + 30 ng/ml TNFα,254090 RLU
same,RLU MEAN,[3]; 10 μM + 30 ng/ml TNFα,261993 RLU
same,RLU specific,[3]; 10 μM + 30 ng/ml TNFα,229147 RLU
same,% Activation,[3]; 10 μM + 30 ng/ml TNFα,154.8%
same,RLU 2,[3]; 25 μM + 30 ng/ml TNFα,171280 RLU
same,RLU 3,[3]; 25 μM + 30 ng/ml TNFα,171730 RLU
same,RLU MEAN,[3]; 25 μM + 30 ng/ml TNFα,172650 RLU
same,RLU specific,[3]; 25 μM + 30 ng/ml TNFα,139803 RLU
same,% Activation,[3]; 25 μM + 30 ng/ml TNFα,94.4%
